Measured values reported in the NIST ThermoML archive (doi:10.1016/j.jct.2006.09.007).
Several values for one entry are separate records, joined by “and”; a condition that tells them apart may be missing. Equal values may be shown once.

What was measured:
[1] = 101.3 kPa, Liquid
[2] = molar heat capacity at constant pressure; conditions: 298.15 K; 101.33 kPa; Liquid; Flow calorimetry
[3] = xn = mol fraction of the nth substance listed; conditions: 101.3 kPa, Liquid

Cc1ccc(C)c(C)c1 [1,2,4-trimethylbenzene]
[1]
Conditions	mass density [kg/m3]
298.15 K	871.56
308.15 K	862.53

Conditions	molar heat capacity at constant pressure [J/K/mol]
[2]	213.02

Cc1ccc(C)c(C)c1 [1,2,4-trimethylbenzene] + N#Cc1ccccc1
[3], x2 = 0
Conditions	mass density [kg/m3]
298.15 K	871.56
308.15 K	862.53

Cc1ccccc1C [1,2-dimethylbenzene] + N#Cc1ccccc1
[3], x2 = 0
Conditions	mass density [kg/m3]
298.15 K	875.55
308.15 K	866.29

Cc1cc(C)cc(C)c1 [1,3,5-trimethylbenzene] + N#Cc1ccccc1
[3], x2 = 0
Conditions	mass density [kg/m3]
298.15 K	860.9
308.15 K	851.88

Cc1cccc(C)c1 [1,3-dimethylbenzene] + N#Cc1ccccc1
[3], x2 = 0
Conditions	mass density [kg/m3]
298.15 K	859.68
308.15 K	850.01

Cc1ccc(C)cc1 [1,4-dimethylbenzene] + N#Cc1ccccc1
[3], x2 = 0
Conditions	mass density [kg/m3]
298.15 K	856.48
308.15 K	846.98

COc1ccccc1 [anisole] + N#Cc1ccccc1
[3], x2 = 0
Conditions	mass density [kg/m3]
298.15 K	988.98
308.15 K	978.7

N#Cc1ccccc1 [benzonitrile] + CC(C)c1ccccc1
[3], x1 = 1
Conditions	mass density [kg/m3]
298.15 K	1000.25
308.15 K	990.67

N#Cc1ccccc1 [benzonitrile] + CCc1ccccc1
[3]
Conditions	excess molar heat capacity, 298.15 K [J/K/mol]	mass density, 298.15 K [kg/m3]	mass density, 308.15 K [kg/m3]
x1 = 0.0616	–	870.36	860.67
x1 = 0.0673	–	871.08	861.35
x1 = 0.0699	0.77	–	–
x1 = 0.1221	1.239	–	–
x1 = 0.1384	–	880.39	870.62
x1 = 0.219	1.824	–	–
x1 = 0.2367	–	893.17	883.4
x1 = 0.3021	2.096	–	–
x1 = 0.3478	2.184	–	–
x1 = 0.3726	–	911.19	901.43
x1 = 0.4424	2.181	–	–
x1 = 0.4563	–	922.38	912.65
x1 = 0.4991	–	928.14	918.47
x1 = 0.5151	2.098	–	–
x1 = 0.5903	–	940.59	931
x1 = 0.5925	1.917	–	–
x1 = 0.6379	1.786	–	–
x1 = 0.6935	–	955	945.46
x1 = 0.7404	1.395	–	–
x1 = 0.7801	–	967.39	957.85
x1 = 0.8033	1.119	–	–
x1 = 0.8857	0.666	–	–
x1 = 0.8862	–	983.01	973.45
x1 = 0.947	0.33	–	–
x1 = 0.9502	–	992.6	983.07
x1 = 1	–	1000.25	990.67

N#Cc1ccccc1 [benzonitrile] + COc1ccccc1
mass density [kg/m3], [3]
Conditions	298.15 K	308.15 K
x1 = 0.0168	989.23	979.02
x1 = 0.0762	990.08	979.91
x1 = 0.1199	990.69	980.57
x1 = 0.2462	992.32	982.29
x1 = 0.3042	993.03	983.06
x1 = 0.3614	993.71	983.73
x1 = 0.5068	995.35	985.48
x1 = 0.5823	996.16	986.31
x1 = 0.6772	997.14	987.35
x1 = 0.7832	998.21	988.45
x1 = 0.9105	999.44	989.77
x1 = 1	1000.25	990.67

N#Cc1ccccc1 [benzonitrile] + Cc1cc(C)cc(C)c1
[3]
Conditions	excess molar heat capacity, 298.15 K [J/K/mol]	mass density, 298.15 K [kg/m3]	mass density, 308.15 K [kg/m3]
x1 = 0.073	–	869.06	860.02
x1 = 0.0754	0.726	–	–
x1 = 0.1029	0.966	–	–
x1 = 0.1412	–	876.92	867.88
x1 = 0.1917	–	882.87	873.78
x1 = 0.2104	1.56	–	–
x1 = 0.283	1.84	–	–
x1 = 0.2955	–	895.5	886.4
x1 = 0.3596	–	903.59	894.43
x1 = 0.381	2.016	–	–
x1 = 0.4531	–	915.84	906.58
x1 = 0.4702	1.987	–	–
x1 = 0.5128	–	923.9	914.75
x1 = 0.5479	1.864	–	–
x1 = 0.6098	–	937.51	928.28
x1 = 0.6441	1.563	–	–
x1 = 0.7005	–	950.89	941.57
x1 = 0.712	1.3	–	–
x1 = 0.7895	–	964.64	955.31
x1 = 0.8092	0.861	–	–
x1 = 0.879	–	979.23	969.79
x1 = 0.9041	0.428	–	–
x1 = 0.9501	0.177	–	–
x1 = 0.9536	–	991.98	982.49
x1 = 1	–	1000.25	990.67

N#Cc1ccccc1 [benzonitrile] + Cc1ccc(C)c(C)c1
[3]
Conditions	excess molar heat capacity, 298.15 K	mass density, 298.15 K [kg/m3]	mass density, 308.15 K [kg/m3]
x1 = 0.0712	–	879.01	–
x1 = 0.0829	0.643 J/K/mol	–	–
x1 = 0.1322	–	885.6	876.48
x1 = 0.1409	0.998 J/K/mol and 0.981 J/K/mol	–	–
x1 = 0.1765	–	890.46	881.29
x1 = 0.2844	1.571 J/K/mol and 1.511 J/K/mol	–	–
x1 = 0.2874	–	902.94	893.72
x1 = 0.3441	–	909.49	900.27
x1 = 0.377	1.621 J/K/mol	–	–
x1 = 0.3967	–	915.71	906.56
x1 = 0.445	–	921.57	912.35
x1 = 0.4558	1.622 J/K/mol	–	–
x1 = 0.5283	–	932.03	922.7
x1 = 0.5359	1.475 J/K/mol	–	–
x1 = 0.5861	–	939.54	930.13
x1 = 0.6329	–	945.69	936.31
x1 = 0.6367	1.241 J/K/mol	–	–
x1 = 0.6879	–	953.12	943.75
x1 = 0.6974	1.021 J/K/mol	–	–
x1 = 0.7772	0.753 J/K/mol	–	–
x1 = 0.7796	–	966.07	956.62
x1 = 0.7804	–	966.21	956.8
x1 = 0.8187	–	971.88	962.37
x1 = 0.9027	–	984.6	975.04
x1 = 0.9039	0.294 J/K/mol	–	–
x1 = 0.9079	–	985.41	975.88
x1 = 0.9431	0.176 J/K/mol	–	–
x1 = 0.9687	–	995.12	–
x1 = 0.9822	–	997.27	–
x1 = 1	–	1000.25	990.67
